The values below are quoted from earlier work in patent US20050119262A1, “Method for preventing or treating an optic neuropathy with a cox-2 inhibitor and an intraocular pressure reducing agent” (Pharmacia Corporation, priority 2003, published 2005).

The conditions of the data set: patients with ocular hypertension and glaucoma.

For `CC(=O)Oc1ccccc1C(=O)O` [acetylsalicylic acid], the “effect on IOP” value is given as “no affect on IOP”.
